From patent publication US11584800B2, “Method of treating cancer comprising administration of anti-HER2 antibody-drug conjugate” (DAIICHI SANKYO COMPANY, LIMITED, priority 2014, dated 2023)

Experiments:
[1] = Self-degradation of aminal structure of released drug derivative; type: physicochemical
[2] = tested on: Human gastric cancer line NCI-N87 cells; assay: Antitumor test (2), NCI-N87 subcutaneous transplant in nude mice; type: in vivo, nude mouse; conditions: 10 mg/kg intravenously on Day 7; FIG. 4
Experimental: Mouse: 5- to 6-week-old female nude mice (Charles River Laboratories Japan, Inc.) were acclimatized for 4 to 7 days under SPF conditions before use in the experiment. The mice were fed with sterilized solid feed (FR-2, Funabashi Farms Co., Ltd) and given sterilized tap water (prepared by the addition of 5 to 15 ppm sodium hypochlorite solution). Assay and calculation expression: In all studies, the major axis and minor axis of a tumor were measured twice a week by using an electronic digital caliper ([…] Corp.), and the tumor volume (mm^3) was calculated. The calculation expression is as shown below. […] Human gastric cancer line NCI-N87 cells purchased from ATCC (American Type Culture Collection) were suspended in physiological saline, and 1×10^7 cells were subcutaneously transplanted to the right side of the body of each female nude mouse (Day 0), and the mice were randomly grouped on Day 7. […] An untreated group was established as a control group.

[3] = tested on: Human breast cancer line JIMT-1 cells; assay: Antitumor test (3), JIMT-1 subcutaneous transplant in nude mice; type: in vivo, nude mouse; conditions: 10 mg/kg intravenously on Days 12 and 19; FIG. 5
Experimental: (§2) Assay and calculation expression: In all studies, the major axis and minor axis of a tumor were measured twice a week by using an electronic digital caliper (CD-15CX, Mitutoyo Corp.), and the tumor volume (mm^3) was calculated. The calculation expression is as shown below. Tumor volume(mm^3)=½×Major axis (mm)×[Minor axis (mm)]^2
(§3) All of the antibody-drug conjugates and the antibody were diluted with physiological saline (Otsuka Pharmaceutical Factory, Inc.) and used at a volume of 10 mL/kg for intravenous administration to the tail vein of each mouse.
Human breast cancer line JIMT-1 cells purchased from DSMZ (Deutsche Sammlung von Mikroorganismen und Zellkulturen GmbH) were suspended in physiological saline, and 3×10^6 cells were subcutaneously transplanted to the right side of the body of each female nude mouse (Day 0), and the mice were randomly grouped on Day 12. […] A physiological saline administration group was established as a control group.

[4] = tested on: Human pancreatic cancer line Capan-1 cells weakly expressing HER2; assay: Antitumor test (4), Capan-1 solid tumor in nude mice; type: in vivo, nude mouse; conditions: 10 mg/kg intravenously on Day 20; tumor with low HER2 expression; FIG. 6
Experimental: as §2, §3
Human pancreatic cancer line Capan-1 cells (ATCC) weakly expressing HER2 were suspended in physiological saline, and 4×10^7 cells were subcutaneously transplanted to the right side of the body of each female nude mouse to generate Capan-1 solid tumor. Thereafter, this solid tumor was maintained at several passages by transplantation to female nude mice and used in this test. […]

[5] = tested on: breast cancer ST225 tumor moderately expressing HER2; assay: Antitumor test (6), patient-derived breast cancer ST225 in nude mice; type: in vivo, nude mouse; conditions: 10 mg/kg intravenously on Day 0; HER2 score 2+; FIG. 8
Experimental: (§1) Assay and calculation expression: The major axis and minor axis of tumor were measured twice a week by using an electronic digital caliper, and the tumor volume (mm^3) was calculated. The calculation expression is as shown below.

[6] = tested on: breast cancer ST910 tumor low expressing HER2; assay: Antitumor test (7), patient-derived breast cancer ST910 in nude mice; type: in vivo, nude mouse; conditions: 10 mg/kg intravenously on Day 0; HER2 score 1+; FIG. 9
Experimental: as §1

[7] = tested on: colorectal cancer CTG-0401 tumor low or moderately expressing HER2; assay: Antitumor test (8), patient-derived colorectal cancer CTG-0401 in nude mice; type: in vivo, nude mouse; conditions: 10 mg/kg intravenously on Day 0; HER2 score 1+ or 2+; FIG. 10
Experimental: as §1

[8] = tested on: non-small cell lung cancer CTG-0860 tumor moderately expressing HER2; assay: Antitumor test (9), patient-derived non-small cell lung cancer CTG-0860 in nude mice; type: in vivo, nude mouse; conditions: 10 mg/kg intravenously on Day 0; HER2 score 2+; FIG. 11
Experimental: as §1

[9] = tested on: bile duct cancer CTG-0927 tumor highly expressing HER2; assay: Antitumor test (10), patient-derived bile duct cancer CTG-0927 in nude mice; type: in vivo, nude mouse; conditions: 10 mg/kg intravenously on Day 0; HER2 score 3+; FIG. 12
Experimental: as §1

[10] = tested on: esophageal cancer CTG-0137 tumor highly expressing HER2; assay: Antitumor test (11), patient-derived esophageal cancer CTG-0137 in nude mice; type: in vivo, nude mouse; conditions: 10 mg/kg intravenously on Day 0; HER2 score 3+; FIG. 13
Experimental: as §1

[11] = tested on: Human ovarian cancer line SK-OV-3 cells highly expressing HER2; assay: Antitumor test (12), SK-OV-3 solid tumor in nude mice; type: in vivo, nude mouse; conditions: 10 mg/kg intravenously on Day 0, FIG. 14
Experimental: as §2, §3
Human ovarian cancer line SK-OV-3 cells highly expressing HER2 purchased from ATCC were suspended in physiological saline, and 4×10^7 cells were subcutaneously transplanted to the right side of the body of each female nude mouse to prepare SK-OV-3 solid tumor. Thereafter, this solid tumor was maintained at several passages by transplantation to female nude mice and used in this test. […]

Row | Compound | stability of the aminal structure; releases HO—CH2—C(═O)—(NH-DX) [1] | antitumor effect (tumor volume), NCI-N87 [2] | growth of the JIMT-1 tumor (tumor volume) [3] | growth of the Capan-1 tumor (tumor volume) [4] | growth of the breast cancer ST225 tumor (tumor volume) [5] | growth of the breast cancer ST910 tumor (tumor volume) [6] | growth of the colorectal cancer CTG-0401 tumor (tumor volume) [7] | growth of the non-small cell lung cancer CTG-0860 tumor (tumor volume) [8] | growth of the bile duct cancer CTG-0927 tumor (tumor volume) [9] | growth of the esophageal cancer CTG-0137 tumor (tumor volume) [10] | growth of the SK-OV-3 tumor (tumor volume) [11]
1 | CC[C@@]1(O)C(=O)OCc2c1cc1n(c2=O)Cc2c-1nc1cc(F)c(C)c3c1c2[C@@H](NC(=O)COCN)CC3 [NH2—CH2—O—CH2—C(═O)—(NH-DX)] | undergoes a self-degradation |  |  |  |  |  |  |  |  |  | 
2 | trastuzumab emtansine |  | tumor regression | did not inhibit the growth of the JIMT-1 tumor | did not inhibit the growth of the Capan-1 tumor | remarkably inhibited the growth of the tumor | did not inhibit the growth | did not inhibit the growth | did not inhibit the growth | inhibited the growth of the tumor | remarkably inhibited the growth of the tumor | remarkably inhibited the growth of the tumor
